# Entries after “also recorded” stand apart in the source; their conditions may differ.
# Key:
# [1] = system: DSS induced sub-acute colitis; format: in vivo; set-up: DAI (disease active index) / FOB (fecal occult blood) / Hist score (histological score): scale not given here; Weight / Col Length (colon length): unit not given here
# From the text: This invention also disclosed the used of R-salbutamol for treatment of sub acute or chronic phases of IBD. In one embodiment, IBD was induced by DSS as mentioned above, along with the treatment of R-salbutamol, at day 7th, DSS was removed and replaced with drinking water for additional 2 weeks. The disease active index (DAI) of mice was examined and evaluated periodically. The mice were scarified for pathological and histological evaluations at day of 23rd. In DSS induce IBD mice, there were significant loss of weight and fecal occult blood at day 14th and 22nd. The overall condition of colitis was severe although there was slightly improvement comparing the day 7th. The colon-rector length was significant shortened, and histological score were significant higher from control. In mice with DSS induced colitis, there were significant mononuclear leucocytes infiltration, few newly grew crypts with architectural disarray, denegation of epithelia, mucosa aberrant. There was also deep mucosal lymphocytosis, destruction of lamina propria and sometimes, transmural inflammation.
# Same as example 1, except • 1), Three weeks' study with one week treatment.
# DSS and all the treatment was removed and replaced with drinking water at the end of 1st week. Mice were given drink water and food ad libitum for additional 2 weeks.
# [2] = system: TNBS-induced colitis; test: TNBS-induced colitis (model for Crohn's disease); format: in vivo, Male mice
# From the text: Male mice colitis was induced by rectal co-administration of ethanol and TNBS (Trinitrobenzenesulfonic acid). Severe colitis in mice that was characterized by weight loss and diarrhea. Histologically there were loss of normal structures, visible discrete epithelioid granuloma, multiple erosive lesions, massive transmural inflammation infiltration of lymphocytes, and the loss of goblet cells. […] There was significant alleviation of lesions, few inflammatory infiltration with growing crypts and recovery mucosa epithelia along the column. […] In addition, in TNBS treated colitis mice, there were perianal symptoms: erythema, abscesses and ulcers found in some mice, which may lead to perianal fissures or fistulas. […] The therapeutically effects of R-salbuterol, R-clenbuterol and R-bambuterol on the symptoms in TNBS induced Crohn's disease has never been reported in prior art.
# [3] = system: hemorrhoid inflammation symptoms; test: Hemorrhoid inflammation symptoms, oral or topical; format: in vivo; conditions: given either orally or topically
# From the text: These perianal pathological changes somewhat similar to hemorrhoid inflammation symptoms. […] This new used of beta2 agonists in treatment of hemorrhoid inflammation symptoms has never been disclosed in prior art.
# [4] = system: acne, maliaria, hives and eczema; test: Topical use on acne, maliaria, hives and eczema; format: in vivo
# [5] = system: DSS induced acute colitis
# From the text: In one embodiment, IBD was induced in mice by add DSS into drink water for 7 days. […] (Cooper, S. et al., Clinic pathologic study of dextran sulfate sodium experimental murine colitis, Laboratory Investigation, vol. 69, no. 2, p. 238-249, 1993)
# The mice were scarified at day 10th for anatomy and histology evaluations. […] Each of the above histological features was scored individually and added together which is then collectively expressed as “histological score”, for quantitative evaluation (Cooper, S. et al., above).
# Male C57BL mice (8-10 weeks, 18-20 g) were grouped into control (drinking water only), DSS and DSS plus treatment groups (n=5). Acute colitis was induced by feeding mice with 2% (w/v) dextran sulfate sodium (DSS) (molecular mass 36-50 kDa) added to the drinking water given ad libitum for 7 days. At the end of seventh day, DSS was removed and animals received only drinking water for 2 days. The animals were euthanized for anatomical and histological examination at the tenth day after DSS ingestion.
# R-salbutamol (R-S) (1 mg/kg, S-salbutamol (S-S) (1 mg/kg), R-terbutaline (R-T) (1 mg/kg), S-terbutaline (S-T) (1 mg/kg), R-bambuterol (10 mg/kg), S-bambuterol (S-B) (10 mg/kg), R-clenbuterol (R-C) (1 mg/kg), RS-clenbuterol (RS-C) (2 mg/kg) were administered i.g. daily, starting from the 2nd day of DSS induction for consecutive 8 days. Dexamethasone (Dex), 1 mg/kg) was used as a reference drug.
# Evaluation of disease symptoms and histological changes Disease activity index (DAI): Animals were monitored daily for weight, water/food consumption, morbidity, stool consistency and fecal blood. […] The colon length was recorded as an indicator of inflammation. The entire colon was cut open longitudinally and gently flushed with sterile phosphate-buffered saline (PBS) to remove any traces of feces for pathology preparation. Colon segments were fixed in 10% neutral buffered formalin. Tissues were embedded in paraffin, sectioned, mounted on slides. H&E-stained paraffin section images were acquired. Pathological evaluation was conducted in a blinded manner.
# Histological Score: the scores were given as follows: epithelium, 0=normal morphology, 1=loss of goblet cells, 2=loss of goblet cells in large areas, 3=loss of crypts, and 4=loss of crypts in large areas; and inflammation cells infiltration, 0=no infiltrate, 1=infiltrate around the crypt basis, 2=infiltrate reaching the muscularis mucosae, 3=extensive infiltration reaching the muscularis mucosae and thickening of the mucosa with abundant edema, and 4=infiltration of the submucosa. Data were presented as mean±the standard deviation (SD).
# [6] = system: signal transducer and activator of transcription protein (Stat 2); test: Stat 2 mRNA expression in psoriasis mice; format: in vivo; conditions: plasma of psoriasis mice, dose-response fashion
# From the text: There was enhanced expression of mRNA of Janus kinase 2 (JAK2), a non-receptor tyrosine kinase, and the signal transducer and activator of transcription protein (Stat 2) in the plasma of psoriasis mice in comparison of control, Indicating an increase of JAK2 and Stat 2 proteins. These over expression of mRNA was inhibited by R-salbutamol in a dose-response fashion. (FIG. 3 left & right)
# [7] = system: psoriasis and eczema; test: Oral administration in rats, psoriasis and eczema; format: in vivo
# [8] = system: DSS induced sub-acute colitis; format: in vivo; conditions: treatments started at day 7th till day 22nd
# [9] = one week treatment, evaluation at 23rd day, R-S, S-S 1 mg/kg, R-B, S-B 10 mg/kg
# [10] = sub-acute or chronic DSS colitis, compared with untreated DSS mice
# [11] = acute DSS colitis, compared with untreated DSS mice
compound,measurement,setting,value
"CC(C)(C)NC[C@H](O)c1ccc(O)c(CO)c1 [R-S, R-salbutamol]",Col Length (colon length),[1]; [9],8.2 ± 0.6
same,DAI (disease active index),[1]; [9],4
same,FOB (fecal occult blood),[1]; [9],0.5 ± 0.5
same,Hist score (histological score),[1]; [9],3 ± 0.5
same,Weight,[1]; [9],114 ± 0.2
same,"DAI, in words",[1]; [10],significant improved
same,"histological index / histological score, in words",[1]; [10],significantly ameliorated
same,"fecal occult blood, in words","[1]; sub-acute or chronic DSS colitis, day 14th and 22nd, compared with untreated DSS mice",significantly reduced
same,"perianal manifestations (erythema, abscesses, ulcers)",[2]; TNBS treated mice,significantly alleviated
same,submucosa fibrosis and narrowing of intestinal lumen,[2]; TNBS treated mice,not seen; also recorded: significantly reduce the fibrosis and the narrowing of intestinal lumen
same,"weight loss, diarrhea, colon length versus normal control mice",[2]; oral administration,No significant different
same,"disease condition of TNBS colitis, in words",[2]; oral administration (R-enantiomers),great ameliorated
same,hemorrhoid inflammation symptoms,[3],significantly alleviated
same,"symptoms of acne, maliaria, hives and eczema",[4],significantly alleviated
same,"colon histology (H&E), in words","[5]; Example 1, compared with untreated DSS mice",greatly improved
same,"body weight, in words",[5]; acute DSS colitis,increased
same,"DAI, in words",[5]; [11],significantly improved
same,"FOB, in words",[5]; [11],reduced
same,"histological score, in words",[5]; [11],significantly reduced
same,"length of colon-rector / shortening of large bowel, in words",[5]; [11],shortening of large bowel was reduced
same,Hist score (histological score),"[5]; epithelium 0-4 plus infiltration 0-4, tenth day, 1 mg/kg (R-B, S-B 10 mg/kg; RS-C 2 mg/kg), mean ± SD",4 ± 0.5
same,FOB (fecal occult blood),"[5]; grade 0, 2, 4, i.g. daily 8 days, 1 mg/kg (R-B, S-B 10 mg/kg; RS-C 2 mg/kg), mean ± SD",0.5 ± 0.5
same,Weight,"[5]; i.g. daily 8 days, 1 mg/kg (R-B, S-B 10 mg/kg; RS-C 2 mg/kg), mean ± SD",93 ± 2.8
same,DAI (disease active index),"[5]; score 0 to 12, i.g. daily 8 days from 2nd day of DSS, 1 mg/kg (R-B, S-B 10 mg/kg; RS-C 2 mg/kg), n=5",4
same,Col Length (colon length),"[5]; tenth day, i.g. daily 8 days, 1 mg/kg (R-B, S-B 10 mg/kg; RS-C 2 mg/kg), mean ± SD",7.7 ± 0.6
same,over expression of mRNA of Stat 2,[6],inhibited
same,psoriasis and eczema,[7],significantly ameliorate
same,therapeutic effects in DSS induced IBD mice,[8],significant therapeutic effects

# — patent US20210393549A1, “New use of R-enantiomer of adrenergic beta 2 receptor agonists for treatment of inflammatory bowel disease and its extra intestinal manifestations” (priority 2018, published 2021)
